From article PMC11123991, “Novel 9-Methylanthracene Derivatives as p53 Activators for the Treatment of Glioblastoma Multiforme” (Molecules, 2024)
Blank lines part the entries; values can stand above or below the molecule they belong to.

Legend:
[1] = system: human glioblastoma cell line U87; assay: MTT antiproliferative assay in U87 cells; type: cell-based; settings: for inhibition at 10 µM: read-out: U87 (% Inhib. @ 10 µM); for IC50: mean ± SD (n = 3); for fold decrease in anti-glioma activity: relative to 14a–14c
Procedure: (§1) U87, Hela, MCF-7, and HHL-5 cells were provided by Chinese Academy of Medical Sciences (Beijing, China). The cancer cells were cultured in DMEM media containing 10% heat-inactivated fetal calf serum. All cells were incubated at 37 °C in a 5% CO2 humidified atmosphere and harvested in the exponential growth phase for assays.
(§2) Cells were seeded in a 96-well plate and treated with the test substance at the desired concentration for 72 h. In cytotoxicity experiments, cells were treated with 10 µM of the test compound or 1 µM XI-011 and doxorubicin as positive controls. DMSO (1%) was used as a negative control. In the IC50 analysis, doxorubicin, XI-011, 13d, 13e, 14a, 14b, and, 14n were applied to HHL-5 at 50, 25, 10, 5, 2.5, 1.25, 0.625, 0.3125, and 0.15625 µM and U87 cells at 10, 7.5, 5, […], 1.25, 0.625, 0.3125, and 0.15625 µM, whereas 30, 10, 3, 0.5, and 0.1 µM were applied to Hela and MCF-7 cells. Treated cells were incubated with an MTT solution for 2 h and then with DMSO to dissolve the crystals. Absorbance was determined at 570 nm using a microplate reader (BioTek, Seattle, DC, USA). IC50 values were calculated using the Hill model in GraphPad Prism 8.0.2 software.

[2] = system: HHL-5 human normal cell line; assay: MTT cytotoxicity assay in normal HHL-5 cells; type: cell-based; settings: Homo sapiens, HHL-5; normal cell line, 72 h, MTT, mean ± SD (n = 3)
Procedure: as §1, §2

[3] = system: human cervical cancer cell line HeLa; assay: MTT antiproliferative assay in HeLa cells; type: cell-based; settings: for IC50: Homo sapiens, 72 h, MTT, mean ± SD (n = 3)
Procedure: as §1, §2

[4] = system: human breast cancer cell line MCF-7; assay: MTT antiproliferative assay in MCF-7 cells; type: cell-based; settings: MCF7, 72 h, mean ± SD (n = 3)
Procedure: as §1, §2

MDM4 = settings: Figure 1, representative MDM4 inhibitors; reference not given; cited from earlier work
U87 cells = assay: Flow cytometric apoptosis analysis in U87 cells; type: cell-based, human; settings: U87, 1 µM, 24 h
Procedure: Reducing MDM4 expression restores the p53 function and increases apoptotic cells. The apoptotic effects of compound 13e were determined in U87 cells by flow cytometry. […] 13e induced 21% apoptosis at 1 µM, which was slightly lower than the 23% apoptosis induced by XI-011. At 2 µM 13e, apoptosis was up to 25.9%. […] The mechanism by which 13e induces apoptosis in U87 cells may be related to its ability to downregulate MDM4 expression and stabilize p53 protein.

[5] = Homo sapiens, U-87 MG, 72 h, 10 µM, 72 h, MTT, triplicates
[6] = Homo sapiens, U-87 MG, 72 h, MTT

Structure (SMILES): CCCCCCNC(=N)SCc1c2ccccc2c(C)c2ccccc12 [13l]
- inhibition at 10 µM [1, 5]: 86.7%
- fold potency improvement in U87 cells compared with aryl-derived compounds ([1]; U87 inhibition rate at 10 µM): 3–4 fold

- IC50 [3]: 3640 ± 270 nM
- IC50 ([1]; 72 h, MTT): 1240 ± 240 nM
- IC50 [1, 6]: < 2000 nM
- IC50 [4]: 4560 ± 30 nM
Structure (SMILES): CCc1c2ccccc2c(CSC(=N)N)c2ccccc12 [14a]
- IC50 [2]: 1510 ± 160 nM
- inhibition at 10 µM [1, 5]: 79%

- IC50 [3]: 2660 ± 190 nM
- IC50 ([1]; 72 h, MTT): 1350 ± 100 nM
- IC50 [1, 6]: < 2000 nM
- IC50 [4]: 4550 ± 270 nM
Structure (SMILES): CCc1c2ccccc2c(CSC(=N)NC)c2ccccc12 [14b]
- IC50 [2]: 1620 ± 130 nM
- inhibition at 10 µM [1, 5]: 94.7%

Structure (SMILES): CCc1c2ccccc2c(CSC(=N)N(C)N)c2ccccc12 [14c]
- inhibition at 10 µM [1, 5]: 83.6%

Structure (SMILES): CCc1c2ccccc2c(CSC(=N)NC(=N)N)c2ccccc12 [14d]
- inhibition at 10 µM [1, 5]: 17.3%
- fold decrease in anti-glioma activity ([1]; U87 inhibition rate at 10 µM): 3~4 fold

Structure (SMILES): CCc1c2ccccc2c(CSC(=N)NC(C)=O)c2ccccc12 [14e]
- inhibition at 10 µM [1, 5]: 19.3%
- fold decrease in anti-glioma activity ([1]; U87 inhibition rate at 10 µM): 3~4 fold

Structure (SMILES): CCCCCCNC(=N)SCc1c2ccccc2c(CC)c2ccccc12 [14f]
- inhibition at 10 µM [1, 5]: 43.6%
- fold decrease in anti-glioma activity ([1]; U87 inhibition rate at 10 µM): 3~4 fold

Structure (SMILES): CCc1c2ccccc2c(CSC(=N)Nc2ccc(C(F)(F)F)cc2)c2ccccc12 [14g]
- inhibition at 10 µM [1, 5]: 28%
- fold decrease in anti-glioma activity ([1]; U87 inhibition rate at 10 µM): 3~4 fold

Structure (SMILES): CCCc1c2ccccc2c(CSC(=N)N)c2ccccc12 [14h]
- inhibition at 10 µM [1, 5]: 64.6%

Structure (SMILES): CNC(=N)SCc1c2ccccc2cc2ccccc12 [14i]
- U87 (% Inhib. @ 10 µM) ([1]; 10 µM, 72 h, MTT, triplicates): 76.4%
- inhibition at 10 µM [1, 5]: 83%

Structure (SMILES): N=C(NN)SCc1c2ccccc2cc2ccccc12 [14j]
- inhibition at 10 µM [1, 5]: 11.8%

Structure (SMILES): CC(C)=NNC(=N)SCc1c2ccccc2cc2ccccc12 [14k]
- inhibition at 10 µM [1, 5]: 14.2%

Structure (SMILES): CC(=O)NC(=N)SCc1c2ccccc2cc2ccccc12 [14l]
- inhibition at 10 µM [1, 5]: 0.7%

Structure (SMILES): N=C(N)SCc1c2ccccc2c(Br)c2ccccc12 [14m]
- inhibition at 10 µM [1, 5]: 36.8%

- IC50 [3]: 7740 ± 810 nM
- IC50 ([1]; 72 h, MTT): 1840 ± 120 nM
- IC50 [1, 6]: < 2000 nM
- IC50 [4]: 7600 ± 1370 nM
Structure (SMILES): CNC(=N)SCc1c2ccccc2c(Br)c2ccccc12 [14n]
- IC50 [2]: 1670 ± 160 nM
- fold reduction in anti-cervical cancer activity ([3]; bromo versus methyl and ethyl analogs (14a, 14b, XI-011)): 1–2 fold
- inhibition at 10 µM [1, 5]: 86.5%

Structure (SMILES): N=C(NN)SCc1c2ccccc2c(Br)c2ccccc12 [14o]
- inhibition at 10 µM [1, 5]: 50.7%

Structure (SMILES): N=C(NN)SCc1c2ccccc2nc2ccccc12 [14p]
- inhibition at 10 µM [1, 5]: 19%

Structure (SMILES): N=C(N)SCc1c2ccccc2nc2ccccc12 [14q]
- inhibition at 10 µM [1, 5]: 12.5%

Structure (SMILES): CCCCCCNC(=N)SCc1c2ccccc2nc2ccccc12 [14r]
- inhibition at 10 µM [1, 5]: 2.1%

Structure (SMILES): N=C(N)SC1c2ccccc2CCc2ccccc21 [14s]
- inhibition at 10 µM [1, 5]: 6.9%
- fold less potency than XI-011 ([1]; U87 inhibition rate at 10 µM): approximately 12 fold

- IC50 [3]: 540 ± 50 nM
- IC50 [1, 6]: 440 ± 60 nM
- IC50 [4]: 1320 ± 160 nM
Structure (SMILES): COc1cccc2c1C(=O)c1c(O)c3c(c(O)c1C2=O)C[C@@](O)(C(=O)CO)C[C@@H]3O[C@H]1C[C@H](N)[C@H](O)[C@H](C)O1 [DOX, doxorubicin, reference compound]
- IC50 [2]: 320 ± 20 nM
- inhibition at 10 µM [1, 5]: 81.1%

Structure (SMILES): CCOc1cc(/C=C2\C(=O)N(c3ccccc3)N=C2C)cc(Cl)c1OCC(=O)OC [SJ-172550]
- IC50 (MDM4): 870 nM

- IC50 [3]: 1510 ± 60 nM
- IC50 [1, 6]: 690 ± 20 nM
- IC50 [4]: 4870 ± 300 nM
Structure (SMILES): Cc1c2ccccc2c(CSC(=N)N)c2ccccc12 [XI-011, (10-methylanthracen-9-yl)methyl carbamimidothioate, reference compound]
- IC50 [2]: 550 ± 30 nM
- inhibition at 10 µM [1, 5]: 91.8%
- apoptosis (U87 cells): 23%
